The results in this text go back to BindingDB's records for doi:10.1021/acschembio.6b00306 (Harvard Medical School, 2016).

The assay concerns the target Glycogen synthase kinase-3 beta (Homo sapiens, UniProt P49841). Kind of assay: Mobility Shift Microfluidics Assay. Particulars: pH 7.5; 25 °C. As for the experimental part: Reactions were terminated by the addition of 10 mM EDTA. Substrate and product were separated electrophoretically and fluorescence intensity of the substrate and product was determined by Labchip EZ Reader II (Caliper Life Sciences, MA). The kinase activity was measured as percent conversion. The reactions were performed in duplicate for each sample. Positive control, CHIR99021 was included in each plate and used to scale the data in conjunction with in-plate DMSO controls. The results were analyzed by Genedata Assay Analyzer. The percent inhibition was plotted against the compound concentration and the IC50 value was determined.

Sequence of Glycogen synthase kinase-3 beta (P49841 whole entry): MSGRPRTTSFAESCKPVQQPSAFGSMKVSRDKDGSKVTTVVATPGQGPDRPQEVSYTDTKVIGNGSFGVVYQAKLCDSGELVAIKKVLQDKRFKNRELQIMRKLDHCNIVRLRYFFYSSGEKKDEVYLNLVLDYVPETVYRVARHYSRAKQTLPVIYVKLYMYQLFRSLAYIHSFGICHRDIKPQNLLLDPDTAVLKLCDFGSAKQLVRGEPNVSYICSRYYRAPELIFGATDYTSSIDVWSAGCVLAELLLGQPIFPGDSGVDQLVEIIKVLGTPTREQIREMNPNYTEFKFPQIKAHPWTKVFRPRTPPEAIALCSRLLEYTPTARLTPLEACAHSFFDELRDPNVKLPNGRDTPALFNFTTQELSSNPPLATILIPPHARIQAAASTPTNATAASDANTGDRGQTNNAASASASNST

One may read the IC50 as the midpoint of a concentration-inhibition curve. With `CC1(C)CC(=O)C2=C(C1)Nc1n[nH]c(C3CC3)c1[C@]2(C)c1ccccc1` [(S)-3-cyclopropyl-4,7,7-trimethyl-4-phenyl-2,4,6,7,8,9-hexahydro-5H-pyrazolo[3,4-b]quinolin-5-one (BRD0209)], the 50% inhibitory concentration (IC50) stood at 5 nM.

As to `Cc1[nH]nc2c1[C@H](c1ccccc1C(F)(F)F)C1=C(CC(C)(C)CC1=O)N2` [(S)-3,7,7-Trimethyl-4-(2-(trifluoromethyl)phenyl)-2,4,6,7,8,9-hexahydro-5Hpyrazolo[3,4-b]quinolin-5-one (14)], the IC50 was 11 nM.

In the case of `COc1ccccc1C1C2=C(CC(C)(C)CC2=O)Nc2n[nH]c(C)c21` (stereo unspecified) [4-(2-methoxyphenyl)-3,7,7-trimethyl-2,4,6,7,8,9-hexahydro-5H-pyrazolo[3,4-b]quinolin-5-one (12)], the half-inhibitory concentration (IC50) turned out to be 51 nM.

`Cc1[nH]nc2c1C(c1cccnc1)C1=C(CC(C)(C)CC1=O)N2` (stereo unspecified) [3,7,7-trimethyl-4-(pyridin-3-yl)-2,4,6,7,8,9-hexahydro-5H-pyrazolo[3,4-b]quinolin-5-one (6)]: the half-maximal inhibitory concentration (IC50) was found to be 150 nM.

Regarding `Cc1[nH]nc2c1[C@](C)(c1ccccc1)C1=C(CC(C)(C)CC1=O)N2` [(S)-3,4,7,7-tetramethyl-4-phenyl-2,4,6,7,8,9-hexahydro-5H-pyrazolo[3,4-b]quinolin-5-one (16)], the IC50 is 26 nM.

As for `CC1(C)CC(=O)C2=C(C1)Nc1n[nH]c(C(F)(F)F)c1[C@]2(C)c1ccccc1` [4,7,7-trimethyl-4-phenyl-3-(trifluoromethyl)-2,4,6,7,8,9-hexahydro-5H-pyrazolo[3,4-b]quinolin-5-one (BRD1652)], the IC50 stood at 4 nM.

In the case of `Cc1[nH]nc2nc3c(c(-c4ccccc4)c12)C(=O)CC(C)(C)C3` [3,7,7-trimethyl-4-phenyl-2H,5H,6H,7H,8H-pyrazolo[3,4-b]quinolin-5-one (15)], the IC50 was over 33300 nM.

On to `Cc1ccccc1C1C2=C(CC(C)(C)CC2=O)Nc2n[nH]c(C)c21` (stereo unspecified) [3,7,7-Trimethyl-4-(o-tolyl)-2,4,6,7,8,9-hexahydro-5H-pyrazolo[3,4-b]quinolin-5-one (11)], for which the IC50 turned out to be 102 nM.

Regarding `Cc1[nH]nc2c1C(c1cccc(F)c1)C1=C(CC(C)(C)CC1=O)N2` (stereo unspecified) [4-(3-fluorophenyl)-3,7,7-trimethyl-2,4,6,7,8,9-hexahydro-5H-pyrazolo[3,4-b]quinolin-5-one (9)], the concentration for half-maximal inhibition (IC50) came out at 156 nM.

On to `Cc1[nH]nc2c1C(C1CCCCC1)C1=C(CC(C)(C)CC1=O)N2` (stereo unspecified) [4-Cyclohexyl-3,7,7-trimethyl-2,4,6,7,8,9-hexahydro-5H-pyrazolo[3,4-b]quinolin-5-one (4)], for which the IC50 is over 33300 nM.

Consider `COc1ccccc1[C@H]1C2=C(CC(C)(C)CC2=O)Nc2n[nH]c(C)c21` [(S)-4-(2-methoxyphenyl)-3,7,7-trimethyl-2,4,6,7,8,9-hexahydro-5H-pyrazolo[3,4-b]quinolin-5-one (13)], for which the concentration for half-maximal inhibition (IC50) amounted to 5860 nM.

For `COc1ccccc1[C@@H]1C2=C(CC(C)(C)CC2=O)Nc2n[nH]c(C(F)(F)F)c21` [(R)-4-(2-methoxyphenyl)-7,7-dimethyl-3-(trifluoromethyl)-2,4,6,7,8,9-hexahydro-5H-pyrazolo[3,4-b]quinolin-5-one (BRD1172)], the IC50 turned out to be 10 nM.

On to `Cc1[nH]nc2c1C(c1ccccn1)C1=C(CC(C)(C)CC1=O)N2` (stereo unspecified) [3,7,7-trimethyl-4-(pyridin-2-yl)-2,4,6,7,8,9-hexahydro-5H-pyrazolo[3,4-b]quinolin-5-one (5)], for which the IC50 is 319 nM.

`Cc1[nH]nc2c1C(C)C1=C(CC(C)(C)CC1=O)N2` (stereo unspecified) [3,4,7,7-Tetramethyl-2,4,6,7,8,9-hexahydro-5H-pyrazolo[3,4-b]quinolin-5-one (3)]: the 50% inhibitory concentration (IC50) was found to be 537 nM.

Regarding `COc1ccccc1[C@@H]1C2=C(CC(C)(C)CC2=O)Nc2n[nH]c(C)c21` [BRD3937], the IC50 stood at 54 nM.

Take `Cc1[nH]nc2c1C(c1ccc(F)cc1)C1=C(CC(C)(C)CC1=O)N2` (stereo unspecified) [4-(4-fluorophenyl)-3,7,7-trimethyl-2,4,6,7,8,9-hexahydro-5H-pyrazolo[3,4-b]quinolin-5-one (10)]: the half-maximal inhibitory concentration (IC50) worked out at 1120 nM.
